Patent US20140179523A1, “HERBICIDAL COMPOSITIONS COMPRISING 4-AMINO-3-CHLORO-6-(4-CHLORO-2-FLUORO-3-METHOXYPHENYL) PYRIDINE-2-CARBOXYLIC ACID OR A DERIVATIVE THEREOF AND FLUFENACET” (DOW AGROSCIENCES LLC, priority 2012, published 2014)

Tested on: field violet (Viola arvensis, VIOAR)
Assay: Field trials, post-emergence application in winter wheat, % biomass control visually rated
Type: in vivo
Excerpt: The materials were applied early post-emergence. % BIOMASS CONTROL was visually rated.

| SMILES | % BIOMASS CONTROL 39 DAA Obs (Cmpd 1 7.5 g ae/ha) | % BIOMASS CONTROL 181 DAA Obs (Cmpd 1 7.5 g ae/ha) | % BIOMASS CONTROL 225 DAA Obs (Cmpd 1 7.5 g ae/ha) | % BIOMASS CONTROL 39 DAA Obs (flufenacet 240 g ai/ha) | % BIOMASS CONTROL 181 DAA Obs (flufenacet 240 g ai/ha) | % BIOMASS CONTROL 225 DAA Obs (flufenacet 240 g ai/ha) |
| --- | --- | --- | --- | --- | --- | --- |
| COC(=O)c1nc(-c2ccc(Cl)c(OC)c2F)cc(N)c1Cl [Cmpd 1, methyl 4-amino-3-chloro-6-(4-chloro-2-fluoro-3-methoxyphenyl)-pyridine-2-carboxylate] | 13.33d % | 23.33f % | 18.33f % | – | – | – |
| CC(C)N(C(=O)COc1nnc(C(F)(F)F)s1)c1ccc(F)cc1 [Flufenacet, N-(4-fluorophenyl)-N-(1-methylethyl)-2-[[5-(trifluoromethyl)-1,3,4-thiadiazol-2-yl]oxy]acetamide] | – | – | – | 10.00d % | 15.00g % | 10.00g % |
